Reference: patent US5039665A, “Use of fructose-1,6-diphosphate for treating myocardial infarction” (priority 1990, dated 1991)

How the values were obtained:
[1] = tested on: rabbit ileum; assay: force of contraction of isolated rabbit ileum; settings: added to perfusate
Source text: (§1) To allow for a broader and more complete interpretation of the results, a small paragraph will be devoted to the ability of FDP to cross the cellular membranes.

[2] = tested on: erythrocytes; assay: incubation of erythrocytes: ATP and 2-3 DPG content; type: cell-based; settings: equimolar, same conditions
Source text: as §1

[3] = tested on: heart preparation; settings: infusion of Locke's solution plus sugar; cited from earlier work

O=C(CO)[C@@H](O)[C@H](O)[C@H](O)COP(=O)(O)O [fructose-6-phosphate]
force of contraction [1]: fail to produce the same effect | ATP content in the erythrocytes [2]: failed to increase the ATP content

OC[C@H]1O[C@@](CO)(O[C@H]2O[C@H](CO)[C@@H](O)[C@H](O)[C@H]2O)[C@@H](O)[C@@H]1O [sucrose]
amplitude and frequency of heart beats, lactic acid, pH and potassium during recovery [3]: no significant difference

O=C(CO)[C@@H](O)[C@H](O)[C@H](O)CO [fructose]
force of contraction [1]: fail to produce the same effect | ATP content in the erythrocytes [2]: failed to increase the ATP content | amplitude and frequency of heart beats, lactic acid, pH and potassium during recovery [3]: no significant difference

O=P(O)(O)O [inorganic phosphate]
force of contraction [1]: fail to produce the same effect | ATP content in the erythrocytes [2]: failed to increase the ATP content

O=C[C@H](O)[C@@H](O)[C@H](O)[C@H](O)COP(=O)(O)O [glucose-6-phosphate]
force of contraction [1]: fail to produce the same effect | ATP content in the erythrocytes [2]: failed to increase the ATP content
